pIC50: −log10 of the molar value.
Tested on: NCI-H510 multicellular tumor spheroid growth, % test/control
Test: Anticancer human tumor NCI-H510 cell line growth inhibition [Asc];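 also: spheroids exposed to agents for 7 days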;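 as to viability, T/C: 100% = DMSO vehicle control wells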
Conditions: for pIC50: curve of first compound; for viability, T/C: stronger effect = lower value
Summary of the method: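 Spheroid model: tumor line + HUVEC + hMSC. Single agents and combinations; top conc. at/near clinical Cmax (10 microM if undetermined), half-log dilutions. DMSO stocks at 800-fold test concentration.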

SMILES: C#Cc1c(F)ccc2cc(O)cc(-c3ncc4c(N5CC6CCC(C5)N6)nc(OCC56CCCN5CC(F)C6)nc4c3F)c12 (stereo not given) + Cc1c(S(C)(=O)=O)c(-c2cc(F)cc(N3CCN(c4ccc(NS(=O)(=O)c5ccc(NC(CCN6CCC(C(=O)OCCCP(=O)(O)O)CC6)CSc6ccccc6)c(S(=O)(=O)C(F)(F)F)c5)cc4)CC3)c2)c(-c2ccc(Cl)cc2)n1C(C)C
- pIC50 (second compound 0.1 µM): < 5.00
- pIC50 (second compound 0.316 µM): < 5.00
- pIC50 (second compound 1 µM): < 5.00
- pIC50 (second compound 3.16 µM): < 5.00
- pIC50 (second compound 10 µM): 5.18
- viability, T/C (second compound 0.1 µM, first compound 0.0316 µM): 119%
- viability, T/C (second compound 0.1 µM, first compound 0.1 µM): 121%
- viability, T/C (second compound 0.1 µM, first compound 0.316 µM): 103%
- viability, T/C (second compound 0.1 µM, first compound 1 µM): 81.1%
- viability, T/C (second compound 0.1 µM, first compound 3.16 µM): 93.4%
- viability, T/C (second compound 0.1 µM, first compound 10 µM): 109%
- viability, T/C (second compound 0.316 µM, first compound 0.0316 µM): 112%
- viability, T/C (second compound 0.316 µM, first compound 0.1 µM): 104%
- viability, T/C (second compound 0.316 µM, first compound 0.316 µM): 105%
- viability, T/C (second compound 0.316 µM, first compound 1 µM): 91.7%
- viability, T/C (second compound 0.316 µM, first compound 3.16 µM): 89.9%
- viability, T/C (second compound 0.316 µM, first compound 10 µM): 73%
- viability, T/C (second compound 1 µM, first compound 0.0316 µM): 105%
- viability, T/C (second compound 1 µM, first compound 0.1 µM): 121%
- viability, T/C (second compound 1 µM, first compound 0.316 µM): 119%
- viability, T/C (second compound 1 µM, first compound 1 µM): 109%
- viability, T/C (second compound 1 µM, first compound 3.16 µM): 108%
- viability, T/C (second compound 1 µM, first compound 10 µM): 73%
- viability, T/C (second compound 3.16 µM, first compound 0.0316 µM): 108%
- viability, T/C (second compound 3.16 µM, first compound 0.1 µM): 101%
- viability, T/C (second compound 3.16 µM, first compound 0.316 µM): 110%
- viability, T/C (second compound 3.16 µM, first compound 1 µM): 115%
- viability, T/C (second compound 3.16 µM, first compound 3.16 µM): 109%
- viability, T/C (second compound 3.16 µM, first compound 10 µM): 77%
- viability, T/C (second compound 10 µM, first compound 0.0316 µM): 102%
- viability, T/C (second compound 10 µM, first compound 0.1 µM): 89.3%
- viability, T/C (second compound 10 µM, first compound 0.316 µM): 113%
- viability, T/C (second compound 10 µM, first compound 1 µM): 70.3%
- viability, T/C (second compound 10 µM, first compound 3.16 µM): 74.3%
- viability, T/C (second compound 10 µM, first compound 10 µM): 38.5%

SMILES: Cc1nc(N2CCC3(CC2)COC(C)C3N)c(CO)nc1Sc1ccnc(N)c1Cl (stereo not given) + Cc1c(S(C)(=O)=O)c(-c2cc(F)cc(N3CCN(c4ccc(NS(=O)(=O)c5ccc(NC(CCN6CCC(C(=O)OCCCP(=O)(O)O)CC6)CSc6ccccc6)c(S(=O)(=O)C(F)(F)F)c5)cc4)CC3)c2)c(-c2ccc(Cl)cc2)n1C(C)C
- pIC50 (second compound 0.1 µM): < 5.52
- pIC50 (second compound 0.316 µM): < 5.52
- pIC50 (second compound 1 µM): < 5.52
- pIC50 (second compound 3.16 µM): < 5.52
- pIC50 (second compound 10 µM): < 5.52
- viability, T/C (second compound 0.1 µM, first compound 0.00949 µM): 126%
- viability, T/C (second compound 0.1 µM, first compound 0.03 µM): 122%
- viability, T/C (second compound 0.1 µM, first compound 0.0949 µM): 112%
- viability, T/C (second compound 0.1 µM, first compound 0.3 µM): 111%
- viability, T/C (second compound 0.1 µM, first compound 0.949 µM): 128%
- viability, T/C (second compound 0.1 µM, first compound 3 µM): 117%
- viability, T/C (second compound 0.316 µM, first compound 0.00949 µM): 125%
- viability, T/C (second compound 0.316 µM, first compound 0.03 µM): 130%
- viability, T/C (second compound 0.316 µM, first compound 0.0949 µM): 136%
- viability, T/C (second compound 0.316 µM, first compound 0.3 µM): 127%
- viability, T/C (second compound 0.316 µM, first compound 0.949 µM): 111%
- viability, T/C (second compound 0.316 µM, first compound 3 µM): 132%
- viability, T/C (second compound 1 µM, first compound 0.00949 µM): 92.8%
- viability, T/C (second compound 1 µM, first compound 0.03 µM): 139%
- viability, T/C (second compound 1 µM, first compound 0.0949 µM): 122%
- viability, T/C (second compound 1 µM, first compound 0.3 µM): 102%
- viability, T/C (second compound 1 µM, first compound 0.949 µM): 118%
- viability, T/C (second compound 1 µM, first compound 3 µM): 130%
- viability, T/C (second compound 3.16 µM, first compound 0.00949 µM): 132%
- viability, T/C (second compound 3.16 µM, first compound 0.03 µM): 128%
- viability, T/C (second compound 3.16 µM, first compound 0.0949 µM): 137%
- viability, T/C (second compound 3.16 µM, first compound 0.3 µM): 123%
- viability, T/C (second compound 3.16 µM, first compound 0.949 µM): 119%
- viability, T/C (second compound 3.16 µM, first compound 3 µM): 118%
- viability, T/C (second compound 10 µM, first compound 0.00949 µM): 133%
- viability, T/C (second compound 10 µM, first compound 0.03 µM): 123%
- viability, T/C (second compound 10 µM, first compound 0.0949 µM): 125%
- viability, T/C (second compound 10 µM, first compound 0.3 µM): 94%
- viability, T/C (second compound 10 µM, first compound 0.949 µM): 114%
- viability, T/C (second compound 10 µM, first compound 3 µM): 95.2%
